Here are results for 28 compounds from BindingDB's records for doi:10.1016/s0960-894x(03)00461-x (Eli Lilly, 2003).

Where only a bound is given, the exact number is not on record here.

In the test the target is cAMP-dependent protein kinase catalytic subunit alpha (Bos taurus, UniProt P00517). Nature of the test: CDK Kinase Inhibition Assay. As to conditions: 25 °C.
A word on the IC50: it is the midpoint of a concentration-inhibition curve. A higher IC50 goes with weaker potency in that assay. `O=C1NC(=O)c2c1c1c(ccc3cc[nH]c31)c1[nH]c3ccccc3c21` [3,13,18-triazahexacyclo[14.7.0.0^{2,10}.0^{4,9}.0^{11,15}.0^{17,21}]tricosa-1(16),2(10),4(9),5,7,11(15),17(21),19,22-nonaene-12,14-dione] returned an IC50 of more than 2 µM.
In the case of `O=C1NC(=O)c2c1c1c(ccc3cc[nH]c31)c1c2c2ccccc2n1CCCO` [3-(3-hydroxypropyl)-3,13,18-triazahexacyclo[14.7.0.0^{2,10}.0^{4,9}.0^{11,15}.0^{17,21}]tricosa-1(16),2(10),4(9),5,7,11(15),17(21),19,22-nonaene-12,14-dione] it was more than 20 µM; in that of `Cn1ccc2ccc3c(c4c(c5c6ccccc6n(CCCO)c35)C(=O)NC4=O)c21` [3-(3-hydroxypropyl)-18-methyl-3,13,18-triazahexacyclo[14.7.0.0^{2,10}.0^{4,9}.0^{11,15}.0^{17,21}]tricosa-1(16),2(10),4(9),5,7,11(15),17(21),19,22-nonaene-12,14-dione], more than 2 µM.
To `COc1ccc2c3c4c(c5c(ccc6ccn(C)c65)c3n(CCN3CCC[C@H]3CO)c2c1)C(=O)NC4=O` [3-{2-[(2S)-2-(hydroxymethyl)pyrrolidin-1-yl]ethyl}-6-methoxy-18-methyl-3,13,18-triazahexacyclo[14.7.0.0^{2,10}.0^{4,9}.0^{11,15}.0^{17,21}]tricosa-1(16),2(10),4(9),5,7,11(15),17(21),19,22-nonaene-12,14-dione] belongs more than 20 µM.
To `Cn1ccc2ccc3c4[nH]c5c(CCO)cccc5c4c4c(c3c21)C(=O)NC4=O` [5-(2-hydroxyethyl)-18-methyl-3,13,18-triazahexacyclo[14.7.0.0^{2,10}.0^{4,9}.0^{11,15}.0^{17,21}]tricosa-1(16),2(10),4(9),5,7,11(15),17(21),19,22-nonaene-12,14-dione] belongs more than 20 µM; to `Cn1ccc2ccc3c4[nH]c5c(CCCO)cccc5c4c4c(c3c21)C(=O)NC4=O` [5-(3-hydroxypropyl)-18-methyl-3,13,18-triazahexacyclo[14.7.0.0^{2,10}.0^{4,9}.0^{11,15}.0^{17,21}]tricosa-1(16),2(10),4(9),5,7,11(15),17(21),19,22-nonaene-12,14-dione], more than 20 µM; to `COc1cccc2c1[nH]c1c3ccc4ccn(C)c4c3c3c(c21)C(=O)NC3=O` [5-methoxy-18-methyl-3,13,18-triazahexacyclo[14.7.0.0^{2,10}.0^{4,9}.0^{11,15}.0^{17,21}]tricosa-1(16),2(10),4(9),5,7,11(15),17(21),19,22-nonaene-12,14-dione], more than 20 µM.
For `Cc1ccc2c(c1)[nH]c1c3ccc4ccn(C)c4c3c3c(c21)C(=O)NC3=O` [6,18-dimethyl-3,13,18-triazahexacyclo[14.7.0.0^{2,10}.0^{4,9}.0^{11,15}.0^{17,21}]tricosa-1(16),2(10),4(9),5,7,11(15),17(21),19,22-nonaene-12,14-dione], the IC50 was more than 20 µM.
`Cn1ccc2ccc3c4[nH]c5cc(Br)ccc5c4c4c(c3c21)C(=O)NC4=O` [6-bromo-18-methyl-3,13,18-triazahexacyclo[14.7.0.0^{2,10}.0^{4,9}.0^{11,15}.0^{17,21}]tricosa-1(16),2(10),4(9),5,7,11(15),17(21),19,22-nonaene-12,14-dione] registered an IC50 of more than 20 µM.
To `CCOc1ccc2c(c1)[nH]c1c3ccc4ccn(C)c4c3c3c(c21)C(=O)NC3=O` [6-ethoxy-18-methyl-3,13,18-triazahexacyclo[14.7.0.0^{2,10}.0^{4,9}.0^{11,15}.0^{17,21}]tricosa-1(16),2(10),4(9),5,7,11(15),17(21),19,22-nonaene-12,14-dione] belongs more than 20 µM; to `Cc1cc2ccn(C)c2c2c3c(c4c5ccc(F)cc5[nH]c4c12)C(=O)NC3=O` [6-fluoro-18,23-dimethyl-3,13,18-triazahexacyclo[14.7.0.0^{2,10}.0^{4,9}.0^{11,15}.0^{17,21}]tricosa-1(16),2(10),4(9),5,7,11(15),17(21),19,22-nonaene-12,14-dione], more than 20 µM.
To `Cn1ccc2ccc3c4[nH]c5cc(F)ccc5c4c4c(c3c21)C(=O)NC4=O` [6-fluoro-18-methyl-3,13,18-triazahexacyclo[14.7.0.0^{2,10}.0^{4,9}.0^{11,15}.0^{17,21}]tricosa-1(16),2(10),4(9),5,7,11(15),17(21),19,22-nonaene-12,14-dione] belongs more than 20 µM; to `COc1ccc2c(c1)[nH]c1c2c2c(c3c1c(C)cc1ccn(C)c13)C(=O)NC2=O` [6-methoxy-18,23-dimethyl-3,13,18-triazahexacyclo[14.7.0.0^{2,10}.0^{4,9}.0^{11,15}.0^{17,21}]tricosa-1(16),2(10),4(9),5,7,11(15),17(21),19,22-nonaene-12,14-dione], more than 20 µM.
With `COc1ccc2c(c1)[nH]c1c3ccc4ccn(C)c4c3c3c(c21)C(=O)NC3=O` [6-methoxy-18-methyl-3,13,18-triazahexacyclo[14.7.0.0^{2,10}.0^{4,9}.0^{11,15}.0^{17,21}]tricosa-1(16),2(10),4(9),5,7,11(15),17(21),19,22-nonaene-12,14-dione], the IC50 was more than 20 µM.
To `Cn1ccc2ccc3c4[nH]c5ccc(F)cc5c4c4c(c3c21)C(=O)NC4=O` [7-fluoro-18-methyl-3,13,18-triazahexacyclo[14.7.0.0^{2,10}.0^{4,9}.0^{11,15}.0^{17,21}]tricosa-1(16),2(10),4(9),5,7,11(15),17(21),19,22-nonaene-12,14-dione] belongs more than 20 µM.
Take `COc1ccc2[nH]c3c4ccc5ccn(C)c5c4c4c(c3c2c1)C(=O)NC4=O` [7-methoxy-18-methyl-3,13,18-triazahexacyclo[14.7.0.0^{2,10}.0^{4,9}.0^{11,15}.0^{17,21}]tricosa-1(16),2(10),4(9),5,7,11(15),17(21),19,22-nonaene-12,14-dione]: the IC50 is more than 20 µM.
With `Cn1ccc2ccc3c4[nH]c5cccc(CO)c5c4c4c(c3c21)C(=O)NC4=O` [8-(hydroxymethyl)-18-methyl-3,13,18-triazahexacyclo[14.7.0.0^{2,10}.0^{4,9}.0^{11,15}.0^{17,21}]tricosa-1(16),2(10),4(9),5,7,11(15),17(21),19,22-nonaene-12,14-dione], the IC50 was more than 20 µM.
Compound `Cn1ccc2ccc3c4[nH]c5cccc(Br)c5c4c4c(c3c21)C(=O)NC4=O` [8-bromo-18-methyl-3,13,18-triazahexacyclo[14.7.0.0^{2,10}.0^{4,9}.0^{11,15}.0^{17,21}]tricosa-1(16),2(10),4(9),5,7,11(15),17(21),19,22-nonaene-12,14-dione] returned an IC50 of more than 20 µM.
In the case of `Cn1ccc2ccc3c4[nH]c5cccc(F)c5c4c4c(c3c21)C(=O)NC4=O` [8-fluoro-18-methyl-3,13,18-triazahexacyclo[14.7.0.0^{2,10}.0^{4,9}.0^{11,15}.0^{17,21}]tricosa-1(16),2(10),4(9),5,7,11(15),17(21),19,22-nonaene-12,14-dione] it was more than 20 µM; in that of `Cc1cc2ccn(C)c2c2c3c(c4c5ccccc5[nH]c4c12)C(=O)NC3=O` [18,23-dimethyl-3,13,18-triazahexacyclo[14.7.0.0^{2,10}.0^{4,9}.0^{11,15}.0^{17,21}]tricosa-1(16),2(10),4(9),5,7,11(15),17(21),19,22-nonaene-12,14-dione], more than 20 µM.
To `Cc1cc2ccn(C)c2c2c3c(c4c5ccc(C(F)(F)F)cc5[nH]c4c12)C(=O)NC3=O` [18,23-dimethyl-6-(trifluoromethyl)-3,13,18-triazahexacyclo[14.7.0.0^{2,10}.0^{4,9}.0^{11,15}.0^{17,21}]tricosa-1(16),2(10),4(9),5,7,11(15),17(21),19,22-nonaene-12,14-dione] belongs more than 20 µM.
In the case of `CCn1ccc2ccc3c4[nH]c5ccccc5c4c4c(c3c21)C(=O)NC4=O` [18-ethyl-3,13,18-triazahexacyclo[14.7.0.0^{2,10}.0^{4,9}.0^{11,15}.0^{17,21}]tricosa-1(16),2(10),4(9),5,7,11(15),17(21),19,22-nonaene-12,14-dione] it was more than 2 µM; in that of `Cn1ccc2ccc3c4[nH]c5ccccc5c4c4c(c3c21)C(=O)NC4=O` [18-methyl-3,13,18-triazahexacyclo[14.7.0.0^{2,10}.0^{4,9}.0^{11,15}.0^{17,21}]tricosa-1(16),2(10),4(9),5,7,11(15),17(21),19,22-nonaene-12,14-dione], more than 20 µM.
In the case of `Cn1ccc2ccc3c4[nH]c5c(CCN6CCOCC6)cccc5c4c4c(c3c21)C(=O)NC4=O` [18-methyl-5-[2-(morpholin-4-yl)ethyl]-3,13,18-triazahexacyclo[14.7.0.0^{2,10}.0^{4,9}.0^{11,15}.0^{17,21}]tricosa-1(16),2(10),4(9),5,7,11(15),17(21),19,22-nonaene-12,14-dione], the IC50 is more than 20 µM.
In the case of `Cn1ccc2ccc3c4[nH]c5c(CCN6CCSCC6)cccc5c4c4c(c3c21)C(=O)NC4=O` [18-methyl-5-[2-(thiomorpholin-4-yl)ethyl]-3,13,18-triazahexacyclo[14.7.0.0^{2,10}.0^{4,9}.0^{11,15}.0^{17,21}]tricosa-1(16),2(10),4(9),5,7,11(15),17(21),19,22-nonaene-12,14-dione] it was more than 20 µM; in that of `Cn1ccc2ccc3c4[nH]c5c(CCCN6CCOCC6)cccc5c4c4c(c3c21)C(=O)NC4=O` [18-methyl-5-[3-(morpholin-4-yl)propyl]-3,13,18-triazahexacyclo[14.7.0.0^{2,10}.0^{4,9}.0^{11,15}.0^{17,21}]tricosa-1(16),2(10),4(9),5,7,11(15),17(21),19,22-nonaene-12,14-dione], more than 20 µM.
Consider `Cn1ccc2ccc3c4[nH]c5cc(C(F)(F)F)ccc5c4c4c(c3c21)C(=O)NC4=O` [18-methyl-6-(trifluoromethyl)-3,13,18-triazahexacyclo[14.7.0.0^{2,10}.0^{4,9}.0^{11,15}.0^{17,21}]tricosa-1(16),2(10),4(9),5,7,11(15),17(21),19,22-nonaene-12,14-dione], for which the IC50 is more than 20 µM.
In turn, `Cn1ccc2ccc3c4[nH]c5cc(C#N)ccc5c4c4c(c3c21)C(=O)NC4=O` [18-methyl-12,14-dioxo-3,13,18-triazahexacyclo[14.7.0.0^{2,10}.0^{4,9}.0^{11,15}.0^{17,21}]tricosa-1(16),2(10),4(9),5,7,11(15),17(21),19,22-nonaene-6-carbonitrile] returned an IC50 of more than 20 µM.
